These are literature values, as cited in patent US7115281B2, “Processes for the preparation of oral dosage formulations of modafinil” (Ranbaxy Laboratories Limited, priority 2002, dated 2006).

Experiment in data set [1]: not given
The source holds these as a separate data set.

As to `NC(=O)C[S+]([O-])C(c1ccccc1)c1ccccc1` (centres unmarked) [modafinil], the “Stability at higher temperatures” value was “unstable”. In addition, the Solubility in water entry in data set [1] is given as “less than 1 mg/ml”.
